Target: TNFα trimer (Homo sapiens, UniProt P01375)
Experiment: TNFα FP Competitive Binding Assay
Conditions: FP binding assay; 20 nM TNFα trimer, 1 nM OregonGreen488 probe; read-out: TNF IC50
How it was run: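 Compounds in 12-point 1:3 series, final top 100 μM (2.0% DMSO) or 338 μM (3.4% DMSO), displace 1 nM fluorescent probe from 20 nM TNFα trimer. After 18-24 h incubation plus 1 h rt equilibration, background-subtracted polarization measured and curves fitted with variable slope.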

Sequence of TNFα trimer (P01375 77-233 limits assumed): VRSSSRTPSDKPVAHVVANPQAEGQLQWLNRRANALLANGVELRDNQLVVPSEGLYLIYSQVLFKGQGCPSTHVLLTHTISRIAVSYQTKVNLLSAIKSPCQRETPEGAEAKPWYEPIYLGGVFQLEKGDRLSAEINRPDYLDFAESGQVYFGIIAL

How did the IC50 turn out when `Cn1c(=O)c2ccc(-c3cnc(NC4CCNC4=O)nc3)cc2n1Cc1cc(CO)ccc1OC(F)F` (stereo not drawn) [Example 16.6] was run?
Its IC50 is 1000 to 10000 nM.

With `Cn1c(=O)c2ccc(-c3cnc(N4CCOCC4)nc3)cc2n1Cc1nc(Cl)ccc1Cl` [Example 1.16] as the compound, how does the IC50 read?
Its IC50 is 1000 to 10000 nM.

Which IC50 does the source give for `Cn1c(=O)c2ccc(-c3cnc(N4CCN5C(=O)NC[C@@H]5C4)nc3)cc2n1Cc1nc(CO)ccc1C(F)(F)F` [Example 16.10] here?
Its IC50 is under 1000 nM.

How did the IC50 turn out when `CC(=O)N1CC(Cc2ccc(OC(F)F)c(Cn3c4cc(-c5cnc(C(C)(C)O)nc5)c(F)cc4c(=O)n3C)c2)C1` [Example 26.6] was run?
Its IC50 is 1000 to 10000 nM.

`Cn1c(=O)c2ccc(-c3cnc(C(C)(C)O)nc3)cc2n1Cc1cc(NCc2ccccn2)ccc1Cl` [Example 42, 1-(2-Chloro-5-((pyridin-2-ylmethyl)amino)benzyl)-6-(2-(2-hydroxypropan-2-yl)pyrimidin-5-yl)-2-methyl-1H-indazol-3(2H)-one] was tested. Which IC50 did it give?
Its IC50 is 1000 to 10000 nM.

`COc1c(-c2cnc(N3CCN(C(=O)CO)[C@H](C)C3)nc2)ccc2c(=O)n(C)n(Cc3ccccc3Cl)c12` [Example 24.9] was tested. Which IC50 did it give?
Its IC50 is under 1000 nM.

`Cc1ccc(OC(F)F)c(Cn2c3cc(-c4cnc(C(C)(C)N)nc4)ccc3c(=O)n2C)c1` [Example 120, 6-(2-(2-Aminopropan-2-yl)pyrimidin-5-yl)-1-(2-(difluoromethoxy)-5-methylbenzyl)-2-methyl-1H-indazol-3(2H)-one] was tested. Which IC50 did it give?
The IC50 was under 1000 nM.

`COCCCNc1ncc(-c2ccc3c(=O)n(C)n(Cc4ccccc4OC(F)F)c3c2)cn1` [Example 2.22] was tested. Which IC50 did it give?
The IC50 was 1000 to 10000 nM.

Which IC50 does the source give for `Cn1c(=O)c2ccc(-c3cnc(CN4CC(C(=O)O)C4)nc3)cc2n1Cc1ccccc1OC(F)F` [Example 4, 1-((5-(1-(2-(Difluoromethoxy)benzyl)-2-methyl-3-oxo-2,3-dihydro-1H-indazol-6-yl)pyrimidin-2-yl)methyl)azetidine-3-carboxylic acid] here?
The IC50 was over 10000 nM.

For `Cn1c(=O)c2ccc(-c3cnc(N4CCOCC4)nc3)cc2n1-c1cc(Cl)ccc1Cl` [Example 12.1], which IC50 is on record?
Its IC50 is 1000 to 10000 nM.

With `Cn1c(=O)c2ccc(-c3cnc(NC4COC4)nc3)cc2n1Cc1ccccc1OC(F)F` [Example 2.10] as the compound, how does the IC50 read?
Its IC50 is 1000 to 10000 nM.

Which IC50 does the source give for `Cc1ccc(OC(F)F)c(Cn2c3cc(-c4cnc(N5CCC(O)CC5)nc4)ccc3c(=O)n2C)c1` [Example 22, 1-(2-(Difluoromethoxy)-5-methylbenzyl)-6-(2-(4-hydroxypiperidin-1-yl)pyrimidin-5-yl)-2-methyl-1H-indazol-3(2H)-one] here?
Its IC50 is under 1000 nM.

With `Cn1c(=O)c2ccc(-c3ccnc(OC4CCOCC4)c3)cc2n1Cc1ccccc1OC(F)F` [Example 10.11] as the compound, how does the IC50 read?
Its IC50 is under 1000 nM.

How did the IC50 turn out when `Cn1c(=O)c2ccc(-c3cnc(C(C)(C)O)nc3)cc2n1Cc1cc(CC#N)ccc1OC(F)F` [Example 26.8] was run?
The IC50 was 1000 to 10000 nM.

For `Cc1ccc(OC(F)F)c(Cn2c3cc(-c4cnc(N5C[C@@H]6CNC(=O)[C@@H]6C5)nc4)ccc3c(=O)n2C)c1` (racemic) [Example 20.3], which IC50 is on record?
The IC50 was 1000 to 10000 nM.

For `Cn1c(=O)c2ccc(-c3cnc(N4CC(CO)C4)nc3)cc2n1Cc1ccccc1OC(F)F` [Example 2.11], which IC50 is on record?
Its IC50 is 1000 to 10000 nM.

For `CC(=O)N1CCN(c2ncc(-c3ccc4c(=O)n(C)n(Cc5cc(CC#N)ccc5OC(F)F)c4c3)cn2)C[C@H]1C` [Example 27.3], which IC50 is on record?
The IC50 was under 1000 nM.

With `Cc1ccc(OC(F)F)c(Cn2c3cc(-c4cnc(N5CCN(C(=O)CC#N)[C@@H](C)C5)nc4)ccc3c(=O)n2C)c1` [Example 25.1] as the compound, how does the IC50 read?
Its IC50 is under 1000 nM.

Which IC50 does the source give for `CC(C)[C@H](N)C(=O)OCc1ccc(OC(F)F)c(Cn2c3cc(-c4cnc(N5CCN6C(=O)NC[C@@H]6C5)nc4)ccc3c(=O)n2C)c1` [Example 14.16] here?
Its IC50 is under 1000 nM.

For `CC(=O)N1CCN(c2ncc(-c3ccc4c(=O)n(C)n(Cc5nc(C)ccc5C(F)(F)F)c4c3)cn2)C[C@H]1C` [Example 19.1], which IC50 is on record?
Its IC50 is under 1000 nM.

How did the IC50 turn out when `Cn1c(=O)c2ccc(-c3cnc(N4CCC(C(=O)O)CC4)nc3)cc2n1Cc1ccccc1OC(F)F` [Example 5.5] was run?
Its IC50 is 1000 to 10000 nM.

Which IC50 does the source give for `C[C@@H]1CN(c2ncc(-c3ccc4c(=O)n(C)n(Cc5cc(CC#N)ccc5OC(F)F)c4c3)cn2)CCN1C(=O)CO` [Example 24.1] here?
The IC50 was under 1000 nM.

With `CN1CC(CNc2ncc(-c3ccc4c(=O)n(C)n(Cc5ccccc5OC(F)F)c4c3)cn2)CC1=O` (stereo not drawn) [Example 2.16] as the compound, how does the IC50 read?
The IC50 was 1000 to 10000 nM.

Which IC50 does the source give for `Cc1ccc(OC(F)F)c(Cn2c3cc(-c4cnn5c([C@H](C)O)cnc5c4)ccc3c(=O)n2C)c1` (single isomer, unassigned) [Example 108] here?
Its IC50 is 1000 to 10000 nM.

For `Cc1ccc(OC(F)F)c(Cn2c3cc(-c4cnc(N5CCN[C@H](C)C5)nc4)ccc3c(=O)n2C)c1` [Example 14.5, (R)-1-(2-(difluoromethoxy)-5-methylbenzyl)-2-methyl-6-(2-(3-methylpiperazin-1-yl)pyrimidin-5-yl)-1H-indazol-3(2H)-one], which IC50 is on record?
Its IC50 is 1000 to 10000 nM.

`COc1cc2c(=O)n(C)n(Cc3ccccc3OC(F)F)c2cc1-c1cnc(N2CCN(C(=O)CO)[C@H](C)C2)nc1` [Example 47, (R)-1-(2-(Difluoromethoxy)benzyl)-6-(2-(4-(2-hydroxyacetyl)-3-methylpiperazin-1-yl)pyrimidin-5-yl)-5-methoxy-2-methyl-1H-indazol-3(2H)-one] was tested. Which IC50 did it give?
Its IC50 is 1000 to 10000 nM.

For `Cn1c(=O)c2ccc(-c3ccc(N4CCOCC4)nc3)cc2n1Cc1ccccc1OC(F)F` [Example 5.2], which IC50 is on record?
The IC50 was 1000 to 10000 nM.

For `Cc1c(-c2cnc(N3CCN(C(=O)CO)[C@H](C)C3)nc2)ccc2c(=O)n(C)n(Cc3ccccc3OC(F)F)c12` [Example 24.12], which IC50 is on record?
Its IC50 is under 1000 nM.

With `CC(=O)N1CCN(c2ncc(-c3ccc4c(=O)n(C)n(Cc5ccc(C)cc5SC(F)F)c4c3)cn2)C[C@H]1C` [Example 82, (R)-6-(2-(4-Acetyl-3-methylpiperazin-1-yl)pyrimidin-5-yl)-1-(2-((difluoromethyl)thio)-4-methylbenzyl)-2-methyl-H-indazol-3(2H)-one] as the compound, how does the IC50 read?
Its IC50 is under 1000 nM.

Which IC50 does the source give for `Cc1c(-c2cnc(N3CCN(C(=O)CO)[C@H](C)C3)nc2)ccc2c(=O)n(C)n(Cc3ccccc3Cl)c12` [Example 24.13] here?
Its IC50 is under 1000 nM.

Which IC50 does the source give for `Cn1c(=O)c2cc(F)c(-c3cnc(C(C)(C)O)nc3)cc2n1Cc1ccccc1OC(F)F` [Example 40, 1-(2-(Difluoromethoxy)benzyl)-5-fluoro-6-(2-(2-hydroxypropan-2-yl)pyrimidin-5-yl)-2-methyl-1H-indazol-3(2H)-one] here?
Its IC50 is 1000 to 10000 nM.

`[2H]C([2H])([2H])n1c(=O)c2ccc(-c3cnc(N4CCN(C(C)=O)[C@H](C)C4)nc3)cc2n1Cc1cc(C)ccc1OC(F)F` [Example 63, (R)-6-(2-(4-Acetyl-3-methylpiperazin-1-yl)pyrimidin-5-yl)-1-(2-(difluoromethoxy)-5-methylbenzyl)-2-methyl-d3-1H-indazol-3(2H)-one] was tested. Which IC50 did it give?
The IC50 was under 1000 nM.

How did the IC50 turn out when `Cn1c(=O)c2ccc(-c3cnc(N4CCOCC4)nc3)cc2n1Cc1ncccc1Cl` [Example 1.14] was run?
The IC50 was 1000 to 10000 nM.

`Cn1c(=O)c2ccc(-c3cnc(N4CCOCC4)nc3)cc2n1CCc1ccccc1` [Example 1.4] was tested. Which IC50 did it give?
The IC50 was over 10000 nM.

With `Cc1ccc(OC(F)F)c(Cn2c3cc(-c4cnc(N5CCN(C(=O)CO)C[C@H]5C)nc4)c(F)cc3c(=O)n2C)c1` [Example 17.3] as the compound, how does the IC50 read?
Its IC50 is under 1000 nM.

Which IC50 does the source give for `Cn1c(=O)c2ccc(-c3cnc(C(C)(C)O)nc3)nc2n1Cc1ccccc1OC(F)F` [Example 16, 1-(2-(Difluoromethoxy)benzyl)-6-(2-(2-hydroxypropan-2-yl)pyrimidin-5-yl)-2-methyl-1H-pyrazolo[3,4-b]pyridin-3(2H)-one] here?
Its IC50 is 1000 to 10000 nM.
